Publication PMC6749524, “Identification of New Antifungal Agents Targeting Chitin Synthesis by a Chemical-Genetic Method” (Molecules, 2019)
pIC50: −log10 of the molar value.

Tests used:
[1] = system: chitin content in WT yeast cells; assay: Chitin content assay (Morgan–Elson method); format: cell-based, S. cerevisiae; details: 16 hours at 30 °C
Method: The chitin content was assessed by measuring the level of D-glucosamine according to the method described by Morgan–Elson. WT yeast cells were grown to 10^5 CFU/ml in YPD medium and then treated with IMB-D10 (12.5 μg/mL), IMB-F4 (25 μg/mL), or DMSO (0.25%) for 16 hours at 30 °C. Cells were collected by centrifugation at 1500 g for 5 min and then freeze-dried after being washed twice with deionized water. Five-milligram sample was weighted and hydrolyzed by H2SO4 at 100 °C for 4 hours. The hydrolysates were centrifuged at 12,000 rpm for 5 min. We removed 100 μL supernatant to another tube and adjusted pH value to 3 with 2 M KOH; then the volume was set to 1 mL with water. One milliliter acetylacetone (7% acetylacetone in 1 M Na2CO3) was added into the tube and incubated for 25 min at 100 °C. The 1.5 mL Ehrlich^’s reagent and 1.5 mL absolute ethyl alcohol were added into the tube for further incubation for 1 hour at 60 °C. The OD520 was determined with BioMet 3S UV-Visible Spectrophotometer (Thermo Scientific^TM, Waltham, MA, USA). N-acetyl-D-glucosamine was used to establish a standard curve for the quantification of chitin levels. All reactions were performed in triplicate.

C. albicans = assay: MIC of CFW in the presence of compounds, checkerboard assay; format: cell-based, Candida albicans
Method: Fresh cell cultures of WT S. cerevisiae and C. albicans ATCC10231 (OD600 = 0.8) were diluted to 10^4 CFU/mL in YPD medium. The in vitro synergistic and antagonistic effects of compounds were determined using checkerboard assay. MIC endpoints were defined as the lowest concentration of drugs, causing 80% decrease in viability compared to the drug-free control (MIC80). The calculation and interpretation of the fractional inhibitory concentration index (FICI) were carried out by referring to the document standards. FICI = (MIC of drug A in combination) / (MIC of drug A alone) + (MIC of drug B in combination) / (MIC of drug B alone). FIC ≤0.5 was considered as a synergistic effect, and >2 was considered as antagonism.

Chs1 = assay: Chitin synthase activity assay (WGA-coated plate); format: biochemical, S. cerevisiae; details: membrane protein from WT yeast
Method: (§1) The inhibitory effect of compounds IMB-D10 and IMB-F4, on the activity of chitin synthases 1, 2, and 3, was measured by the procedure, described previously. In brief, WT yeast cells were grown in YPD medium to OD600 1–2. The cells were sedimented at 1500 g for 15 min at 4 °C and washed once with water. Then, the cells were resuspended in cold 100 mM Tris-HCl (pH 7.5) buffer containing protease inhibitors, and broken by 10 cycles of vortexing with acid-washed glass beads (1 min each). The broken cells were centrifuged for 15 min at 1500g to eliminate cell wall and debris. One volume of supernatant was placed on 2 volumes of 10% w/w sucrose in 100 mM Tris-HCl pH 7.5 and centrifuged at 55,000 g for 2 hours. The pellet was resuspended in 50 mM Tris-HCl pH 7 and used as membrane protein of Chs3. For Chs1 and Chs2, the membrane protein was pretreated with 80 μg/mL trypsin for 30 min at 30 °C.
(§2) To assess the enzyme activity of Chs1, the assay mixture contained 15 μg membrane protein, 5 mM MgCl2, 32 mM Tris-maleate (pH6.5), 0.2% digitonin, 40 mM N-acetyl-glucosamine (GlcNAc), and 4 mM UDP-GlcNAc. For Chs2, the mixture contained 15 μg pretreated membrane protein, 1.6 mM CoCl2, 32 mM Tris-HCl (pH 8), 40 mM GlcNAc, and 4 mM UDP-GlcNAc. For Chs3, the mixture contained pretreated membrane protein 15 μg, 1.6 mM CoCl2, 5 mM NiCl2, 32 mM Tris-HCl (pH 8), 40 mM GlcNAc, and 4 mM UDP-GlcNAc. Different concentrations of IMB-D10 and IMB-F4 were added to the mixture, and the reaction without UDP-GlcNAc was used to measure background absorbance. The 96-well plate coated with 50 μg/mL wheat germ agglutinin (WGA) was washed three times with water, and the reaction mixture was added into the wells and incubated at 30 °C for 60 min. The reaction was stopped by 50 mM EDTA, and the plate was emptied and washed with a large volume of water, followed by the addition of 200 μL 0.5 μg/mL WGA-HRP and incubation for 5 min at room temperature. The plate was washed 5 times with running distilled water. Then, the Tetramethylbenzidine (TMB) reagent was added, and the optical density at 600 nm (OD600) was immediately detected with Multilabel Reader (Envision, PE, Pontyclun, UK). All reactions were performed in triplicate.

Chs3 = target: T1, Chs3 (Saccharomyces cerevisiae, UniProt P29465); assay: Chitin synthase activity assay (WGA-coated plate); format: biochemical, S. cerevisiae
T1 construct: The pellet was resuspended in 50 mM Tris-HCl pH 7 and used as membrane protein of Chs3; endogenous in cells; host or cells: S. cerevisiae WT BY4741, crude membrane fraction
T1 sequence (P29465 whole entry): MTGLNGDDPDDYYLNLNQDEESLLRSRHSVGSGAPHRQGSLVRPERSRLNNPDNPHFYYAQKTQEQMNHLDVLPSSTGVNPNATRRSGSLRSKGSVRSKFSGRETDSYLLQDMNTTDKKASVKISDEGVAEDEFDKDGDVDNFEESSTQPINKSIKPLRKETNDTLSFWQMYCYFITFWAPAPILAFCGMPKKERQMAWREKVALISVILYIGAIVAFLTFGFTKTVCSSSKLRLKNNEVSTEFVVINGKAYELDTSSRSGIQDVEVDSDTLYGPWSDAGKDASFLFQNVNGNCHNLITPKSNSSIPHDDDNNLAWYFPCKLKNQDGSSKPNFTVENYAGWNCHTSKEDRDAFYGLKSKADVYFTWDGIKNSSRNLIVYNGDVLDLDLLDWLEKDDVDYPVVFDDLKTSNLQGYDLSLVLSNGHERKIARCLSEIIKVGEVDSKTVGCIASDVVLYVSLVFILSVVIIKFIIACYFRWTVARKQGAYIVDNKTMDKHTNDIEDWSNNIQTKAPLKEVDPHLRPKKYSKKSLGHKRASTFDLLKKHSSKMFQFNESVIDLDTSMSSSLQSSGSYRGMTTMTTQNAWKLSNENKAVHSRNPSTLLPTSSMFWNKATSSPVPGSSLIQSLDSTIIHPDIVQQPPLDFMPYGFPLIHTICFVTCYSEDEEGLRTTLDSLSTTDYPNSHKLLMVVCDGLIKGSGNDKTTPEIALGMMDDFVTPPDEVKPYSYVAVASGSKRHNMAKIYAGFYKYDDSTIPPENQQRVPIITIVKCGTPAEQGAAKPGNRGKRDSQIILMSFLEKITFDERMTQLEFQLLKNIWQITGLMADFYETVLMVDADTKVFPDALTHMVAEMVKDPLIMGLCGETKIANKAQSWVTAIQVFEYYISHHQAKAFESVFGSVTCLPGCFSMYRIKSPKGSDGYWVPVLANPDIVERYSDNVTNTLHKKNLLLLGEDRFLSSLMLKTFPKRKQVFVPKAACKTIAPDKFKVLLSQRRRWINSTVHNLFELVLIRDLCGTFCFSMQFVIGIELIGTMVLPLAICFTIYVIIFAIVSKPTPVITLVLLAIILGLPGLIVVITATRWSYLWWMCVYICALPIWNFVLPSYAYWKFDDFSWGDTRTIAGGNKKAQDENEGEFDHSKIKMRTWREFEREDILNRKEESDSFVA
Method: as §1, §2

Row | Compound | relative chitin content compared to cells treated with DMSO ([1]; 12.5 μg/mL) | relative chitin content compared to cells treated with DMSO ([1]; 25 μg/mL) [%] | resistance of C. albicans to CFW (C. albicans; 25 and 50 μg/mL IMB-F4) | inhibition of Chs1 activity (Chs1) | pIC50 (Chs3) | MIC of CFW in the presence of IMB-D10 (C. albicans; C. albicans, IMB-D10 at 50 μg/mL) [µg/mL] | IC50 Chs1 (Chs1) [µg/mL] | IC50 Chs3 (Chs3; membrane protein from WT yeast) [µg/mL]
1 | COc1cc(OC)cc(C(=O)N(CCn2ccnc2)c2nc3ccc(OC)cc3s2)c1 [IMB-F4, N-(2-(1H-imidazol-1-yl)ethyl)-3,5-dimethoxy-N-(6-methoxybenzo[d]thiazol-2-yl)benzamide] | 46.09 ± 8.01% | 27 ± 5.33 | increased the resistance | only inhibited the activity of Chs2 and Chs3 | 5.17 |  |  | 
2 | N-(2-(diethylamino) ethyl)-N-(7-hydroxy-4-methoxybenzo[d]thiazol -2-yl)-2-oxo-2H-chromene-3-carboxamide [IMB-D10] | did not reduce the chitin level significantly | 47.61 ± 6.79 |  |  |  | 100 | 17.46 ± 3.39 | 13.08 ± 2.08
